Laboratory results as given in patent publication US20050118310A1, “Formulations of compounds derived from natural sources and their use with irradiation for food preservation” (priority 2001, published 2005).
Marks after values point to notes of the source that are not given here.

Columns and labels:
S. typhi = assay: Effect of carvacrol concentration on survival of S. typhi in ground beef irradiated at 0.5 kGy; type: cell-based, Salmonella typhi (ATCC 19430); conditions: ground beef irradiated at 0.50 kGy; for Increase in Sensitivity: vs 0% carvacrol
Text: (§1) The irradiation treatments of ground beef samples for D10 determination was done using UC-15B irradiator (MDS-Nordion International Inc., Kanata, ON, Canada) equipped with a ^60Co source at a dose rate of 14.42 kGy/h). Irradiation doses used for D10 determination were ranged from 0.1 to 0.6 kGy for E. coli and from 0.50 to 2.0 kGy for S. typhi. Under frozen condition, the irradiation doses ranged from 0.1 to 0.7 kGy for E. coli and from 0.5 to 3.0 kGy for S. typhi. For the determination of the effect of various concentrations of carvacrol on the irradiation sensitivity, samples were irradiated at 0.25 kGy for E. coli and at 0.5 kGy for S. typhi. Irradiation doses used for D10 determination in chicken breast ranged from 0.1 to 0.7 kGy for E. coli and from 0.25 to 2.0 kGy for S. typhi. Samples were analysed immediately after irradiation to determine the microbial count.
(§2) Samples were homogenised for 2 min in sterile peptone water (0.1%) using a Lab-blender 400 stomacher (Laboratory Equipment, London, UK). From this mixture, serial dilutions were prepared and appropriate ones were pour-plated in tryptic soy agar (TSA) (Difco, Laboratories, Detroit, Mich., USA) and incubated at 35° C., 24 hours for the numeration of E. coli and S. typhi.
(§3) The effect of various concentrations of carvacrol in irradiated ground beef was evaluated in order to determine if lower concentrations of carvacrol could also increase the irradiation sensitivity of E. coli and S. typhi in ground beef. For these experiments, sterile ground beef was contaminated with either E. coli or S. typhi to a final concentration of 10^5 CFU/g. Various concentrations of carvacrol ranging from 0 to 2.0% were added to the ground beef samples and transferred in portions of 25 g each to sterile petri plates (60×15 nmu) then stored at 4° C. until irradiation treatment (approximately 15 h).

E. coli = assay: Effect of carvacrol concentration on survival of E. coli in ground beef irradiated at 0.25 kGy; type: cell-based, Escherichia coli (ATCC 25922); conditions: for Increase in Sensitivity: vs 0% carvacrol
Text: as §1, §2, §3

Cc1ccc(C(C)C)cc1O [Carvacrol, carvacrol]
Log CFU/g (S. typhi; carvacrol 0.50%): 3.526 ± 0.061^b Log CFU/g | Increase in Sensitivity (S. typhi; carvacrol 0.50%): 15.4% | Log CFU/g (S. typhi; carvacrol 1.00%): 2.545 ± 0.112^d Log CFU/g | Increase in Sensitivity (S. typhi; carvacrol 1.00%): 39.0% | Log CFU/g (S. typhi; carvacrol 1.75%): 0.000 ± 0.000^g Log CFU/g | Increase in Sensitivity (S. typhi; carvacrol 1.75%): 100% | Log CFU/g (S. typhi; carvacrol 2.00%): 0.000 ± 0.000^g Log CFU/g | Increase in Sensitivity (S. typhi; carvacrol 2.00%): 100% | Log CFU/g (E. coli; carvacrol 0.2%): 2.948 ± 0.088^b Log CFU/g | Increase in Sensitivity (E. coli; carvacrol 0.2%): 4.8% | Log CFU/g (E. coli; carvacrol 0.4%): 2.948 ± 0.068^b Log CFU/g | Increase in Sensitivity (E. coli; carvacrol 0.4%): 4.8% | Log CFU/g (E. coli; carvacrol 0.6%): 2.660 ± 0.037^c Log CFU/g | Increase in Sensitivity (E. coli; carvacrol 0.6%): 14.1% | Log CFU/g (E. coli; carvacrol 0.8%): 1.198 ± 0.065^d Log CFU/g | Increase in Sensitivity (E. coli; carvacrol 0.8%): 61.3% | Log CFU/g (E. coli; carvacrol 1.0%): 0.843 ± 0.000^e Log CFU/g | Increase in Sensitivity (E. coli; carvacrol 1.0%): 72.8% | Log CFU/g (E. coli; carvacrol […]): 0.000 ± 0.000^f Log CFU/g | Increase in Sensitivity (E. coli; carvacrol […]): 100%
